Laboratory results: PubChem BioAssay (NCI)
“And” between values parts separate entries of the source, which are not always exact repeats. Identical values can stand only once.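 Each compound was tested at five concentrations against cells in 96-well plates for 48 hours. At the GI50, growth is halved. TGI marks complete inhibition of growth.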

Experiments:
Experiment in all cases: NCI tumour cell line growth inhibition, 48 h
[1] = test system: M19-MEL melanoma
[2] = test system: DLD-1 colon
[3] = test system: RXF-631 renal
[4] = test system: DMS 114 small cell lung
[5] = test system: HOP-18 NSCLC
[6] = test system: DMS 273 small cell lung
[7] = test system: LXFL 529 NSCLC
[8] = test system: MDA-N
[9] = test system: XF 498 CNS

SMILES	TGI [1] [µM]	TGI [2] [µM]	TGI [3]	TGI [4] [µM]	TGI [5]	TGI [6] [µM]	TGI [7] [µM]	TGI [8] [µM]	TGI [9] [µM]	also measured
O=C1C=C(c2ccccc2)NC1(c1ccccc1)c1cc(-c2ccccc2)[nH]c1-c1ccccc1 (stereo not drawn)	> 100	> 100	> 100 µM	> 100	> 100 µM	> 100	> 100	–	–	–
C[C@H]1CCC/C=C/[C@@H]2C[C@H](O)C[C@H]2[C@H](O)C(O)C(O)C(=O)O1 (stereo partly drawn)	–	–	–	–	–	–	–	> 100	–	GI50 [8]: 4.53 µM
CN(C)Cc1c[nH]c2nc[nH]c(=O)c12	–	–	–	–	–	–	–	67.7	–	–
COc1ccc(-c2cc(-c3ccco3)c(C#N)c(=O)n2C2OC(COC(C)=O)C(OC(C)=O)C(OC(C)=O)C2OC(C)=O)cc1 (stereo not drawn)	> 100	> 100	> 100 µM and 46.5 µM	> 100	> 100 µM and 64.2 µM	> 100	59.6	–	–	GI50 [3]: > 100 µM and 14.3 µM; GI50 [4]: > 100 µM and 21.6 µM
NNC(=O)C(=O)N/N=C1\CCCC1C(=O)CCC(=O)Nc1cccc(Cl)c1 (stereo not drawn)	> 100	> 100	> 100 µM	> 100	> 100 µM	–	> 100	–	> 100	–
CCCOC(=O)C1C(c2ccc(OC)cc2)NC(c2ccc(OC)cc2)C(C(=O)OCCC)S1(=O)=O (stereo not drawn)	–	> 100	> 100 µM	> 100	–	> 100	> 100	–	–	GI50 [2]: > 100 µM; GI50 [3]: > 100 µM; GI50 [4]: > 100 µM; GI50 [6]: > 100 µM; GI50 [7]: > 100 µM
CC1=C(C(=O)Nc2cc(F)c(F)cc2F)C(c2ccc(N(C)C)cc2)C(C(=O)Nc2cc(F)c(F)cc2F)=C(C)N1	> 100	> 100	86.2 µM	62.8	–	> 100	63	–	–	–
O=C1/C(=C/c2ccccc2)CN(C(=O)/C=C/c2ccccc2)C/C1=C\c1ccccc1	> 22.9	11.3	> 100 µM	> 43.8	97.6 µM	> 100	29.1	3.43	38	–
Cc1ccc(S(=O)(=O)NC(=O)Nc2ncn[nH]2)cc1	–	–	–	–	–	–	–	> 100	–	–
C=CCN=C1NC(=O)C(CC(=O)Nc2ccc([N+](=O)[O-])cc2[N+](=O)[O-])S1 (stereo not drawn)	> 100	> 100	> 100 µM	> 100	> 100 µM	> 100	> 100	–	> 100	–
CC(=O)OC1CCC2(C)C(=CCC3C2CCC2(C)C3CC3OC4(CCC(C)CN4)C(C)C32)C1 (stereo not drawn)	–	–	–	–	–	–	–	> 100	–	–
O=C1CC2=CCCC2O1 (stereo not drawn)	> 100	> 100	–	> 100	–	> 100	> 100	–	> 100	–
NNC(=S)N/N=C(\c1nc2ccc(Cl)cc2[nH]c1=O)C(O)c1cccc([N+](=O)[O-])c1 (stereo not drawn)	> 100	–	> 100 µM	> 24.5	> 100 µM	> 58.7	> 100	–	> 100	–
COC(=O)N1C=CC2=C(C)C3Nc4ccccc4C3C(C)=C2C1 (stereo not drawn)	> 100	19.8	–	> 100	–	11.7	9.94	–	7.87	–
CC(C)OC(=O)NNc1c(Cl)cc(Cl)cc1Cl	–	–	–	–	–	–	–	> 100	–	–
CCN(CC)CCNc1ccc2nc(C)n3c4ccc(OC)cc4c(=O)c1c23	19.5	10.9	–	14.6	–	11.5	17.5	17.2	–	–
CC[P+](C)(C)CC	> 100	> 100	> 100 µM	> 100	> 100 µM	> 100	> 100	–	–	–
N/N=C1\C(=O)N(c2ccc(Cl)c(Cl)c2)C(=O)C1C(=O)Nc1ccc(Cl)c(Cl)c1 (stereo not drawn)	> 100	> 100	> 100 µM	> 100	> 100 µM	–	> 100	–	–	–
NC(=O)c1c(-c2ccccc2)c(-c2ccccc2)cc2c(=O)c3ccccc3[nH]c12	79.3	> 100	87.1 µM	56.8	–	46.6	32.7	–	36.6	–
CC[C@@]1(O)C(=O)OCc2c1cc1n(c2=O)Cc2cc3c(N)c(OC)ccc3nc2-1	1.46	> 100	2.74 µM	0.189	> 100 µM	0.36	> 25.6	–	4.14	GI50 [1]: 0.159 µM; GI50 [2]: 1 µM; GI50 [3]: 0.176 µM; GI50 [4]: 0.0252 µM; GI50 [5]: 0.14 µM; GI50 [6]: < 0.0166 µM; GI50 [7]: 0.953 µM; GI50 [9]: 0.389 µM
